Source: ChEMBL document CHEMBL1147352, “Paniceins and related sesquiterpenoids from the Mediterranean sponge Reniera fulva” (1993)

Legend:
CCRF-CEM = assay: Cytotoxicity against human CCRF-CEM cells; assay type: functional; conditions: for GI50: read-out: Log10GI50 (converted); for TGI: read-out: Log10TGI (converted)
NCI-H522 = assay: Cytotoxicity against human NCI-H522 cells; assay type: functional; conditions: for GI50: read-out: Log10GI50 (converted); for CC50: read-out: Log10LC50 (converted); for TGI: read-out: Log10TGI (converted)

Compound | GI50 (CCRF-CEM) [µM] | TGI (CCRF-CEM) [µM] | GI50 (NCI-H522) [µM] | CC50 (NCI-H522) [µM] | TGI (NCI-H522) [µM] | CC50 (CCRF-CEM; read-out: Log10LC50 (converted)) [µM]
C/C(=C\Cc1cc(O)ccc1O)CCc1c(C)cc(O)c(C=O)c1C [PANICEIN B3] | 4.47 | 30.2 | 10 | 55 | 23.4 | –
COc1cc(C)c(CC/C(C)=C/Cc2cc(O)ccc2O)c(C)c1C [PANICEIN A HYDROQUINONE] | 7.76 | > 25.1 | – | – | – | > 25.1
C/C(=C\Cc1cc(O)ccc1O)CCc1c(C)c(O)c(O)c(C=O)c1C [PANICEIN C] | 3.31 | 9.55 | 5.25 | 63.1 | 21.4 | –
